In US8937048B2, “Anti-angiogenic compounds” (Covx Technologies Ireland, Limited, priority 2008, dated 2015):
Where a SMILES comes first, the peptide text is derived from it. Bridges are numbered along the chain shown (N, C = ends).

Molecular target: T1, recombinant human VEGF165 (Homo sapiens, UniProt P15692)
T1 sequence (P15692 27-191 isoform P15692-4): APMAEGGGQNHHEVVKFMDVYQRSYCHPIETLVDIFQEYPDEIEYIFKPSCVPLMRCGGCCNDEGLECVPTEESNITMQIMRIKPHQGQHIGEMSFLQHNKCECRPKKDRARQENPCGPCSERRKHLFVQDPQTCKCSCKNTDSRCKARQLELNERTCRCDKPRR
Experiment: VEGF peptide binding assay (competition ELISA, VEGF165 binding to coated VEGFR2/Fc)
Method: High-binding half-well 96-well plates (Costar #3690) were coated with recombinant human VEGFR2/Fc (50 ng/well) in 50 μl PBS, and incubated at 4° C. overnight. After washing the plates three times with 1× washing buffer (KPL Cat#50-65-00) and blocking with Superblock (Scytek #AAA500) at room temperature (RT) for 1 hour, VEGF-peptides of the invention were serially diluted (concentrations: 0.128-10,000 nM) in the presence of 25 ng/ml of recombinant human VEGF165 in […] Superblock, and were then added to the 96-well plates and incubated at RT for 1 hour. Peptides of the invention tested in this fashion were all capped at the amino terminus with a C(O)CH3 group and at the carboxyl terminus with a NH2 group. The plates were then washed three times with washing buffer, and a diluted (1:500) biotinylated anti-human VEGF antibody (R&D systems, Cat# BAF293) was added and incubated at RT for 2 hours. After washing the plates, streptavidin HRP conjugate (1:200 in Superblock) (R&D systems, Cat# DY998) was added to detect the bound anti-VEGF antibody, followed by addition of tetramethylbenzidine (TMB) substrate (Pierce, Cat#34021) for color development. The reaction was stopped with 2 M H2SO4. OD450 was measured using SpectraMax (Molecular Device) with a correction wavelength of 540 nm. The data were analyzed using Prism software. OD450 values were plotted as a function of the concentrations of the VEGF peptides. IC50 values, indicative of the potency of the VEGF peptides to inhibit VEGF-VEGFR2 interaction, were obtained using a sigmoid dose-response curve fit in Prism.

Compared with `CC[C@H](C)[C@@H]1NC(=O)[C@H](CC(=O)O)NC(=O)[C@@H](NC(=O)[C@H](CC(N)=O)NC(=O)[C@@H]2CCCN2C(=O)[C@H](CCC(=O)O)NC(=O)[C@@H](NC(C)=O)C(C)C)CSSC[C@@H](C(=O)N[C@@H](Cc2ccccc2)C(=O)N[C@@H](CCC(=O)O)C(=O)N[C@@H](CCCNC(=N)N)C(=O)N[C@@H](CC(C)C)C(=O)N[C@@H](Cc2ccc(O)cc2)C(=O)N[C@@H](CCCCN)C(N)=O)NC(=O)[C@H](CCC(=O)O)NC(=O)[C@H](Cc2c[nH]c3ccccc23)NC(=O)[C@H](C(C)C)NC(=O)[C@H](Cc2c[nH]c3ccccc23)NC(=O)[C@H](CCSC)NC(=O)[C@H](C(C)C)NC(=O)[C@H](Cc2c[nH]cn2)NC1=O` [Compound 58, VEPNCDIHVMWVWECFERLYK] (Ac-VEPNCDIHVMWVWECFERLYK-NH2; disulfide 5-15 (inferred)), `CC[C@H](C)[C@@H]1NC(=O)[C@H](CC(=O)O)NC(=O)[C@@H](NC(=O)[C@H](CC(N)=O)NC(=O)[C@@H]2CCCN2C(=O)[C@H](CCC(=O)O)NC(=O)[C@@H](NC(C)=O)C(C)C)CSSC[C@@H](C(=O)N[C@@H](Cc2ccccc2)C(=O)N[C@@H](CCC(=O)O)C(=O)N[C@@H](CCCNC(=N)N)C(=O)N[C@@H](CC(C)C)C(=O)N[C@@H](Cc2ccc(O)cc2)C(=O)NCC(N)=O)NC(=O)[C@H](CCC(=O)O)NC(=O)[C@H](Cc2c[nH]c3ccccc23)NC(=O)[C@H](C(C)C)NC(=O)[C@H](Cc2c[nH]c3ccccc23)NC(=O)[C@H](CCSC)NC(=O)[C@H](C(C)C)NC(=O)[C@H](Cc2c[nH]cn2)NC1=O` [Compound 47, VEPNCDIHVMWVWECFERLYG] (Ac-VEPNCDIHVMWVWECFERLYG-NH2; disulfide 5-15 (inferred)) is 1.7-fold higher in IC50: 25.1 nM for the first, 43.3 nM for the second.

First: CC[C@H](C)[C@@H]1NC(=O)[C@H](CC(=O)O)NC(=O)[C@@H](NC(=O)[C@H](CC(N)=O)NC(=O)[C@@H]2CCCN2C(=O)[C@H](CCC(=O)O)NC(=O)[C@@H](NC(C)=O)C(C)C)CSSC[C@@H](C(=O)N[C@@H](Cc2ccccc2)C(=O)N[C@@H](CCC(=O)O)C(=O)N[C@@H](CCCNC(=N)N)C(=O)N[C@@H](CC(C)C)C(=O)N[C@@H](Cc2ccc(O)cc2)C(=O)N[C@@H](CCCNC(=N)N)C(=O)N[C@@H](CCC(=O)O)C(=O)N[C@@H](CC(C)C)C(N)=O)NC(=O)[C@H](CCC(=O)O)NC(=O)[C@H](Cc2c[nH]c3ccccc23)NC(=O)[C@H](C(C)C)NC(=O)[C@H](Cc2c[nH]c3ccccc23)NC(=O)[C@H](CCSC)NC(=O)[C@H](C(C)C)NC(=O)[C@H](Cc2c[nH]cn2)NC1=O [Compound 39, VEPNCDIHVMWVWECFERLYREL] (Ac-VEPNCDIHVMWVWECFERLYREL-NH2; disulfide 5-15 (inferred))
Second: CC[C@H](C)[C@@H]1NC(=O)[C@H](CC(=O)O)NC(=O)[C@@H](NC(=O)[C@H](CC(N)=O)NC(=O)[C@@H]2CCCN2C(=O)[C@H](CCC(=O)O)NC(=O)[C@@H](NC(C)=O)C(C)C)CSSC[C@@H](C(=O)N[C@@H](Cc2ccccc2)C(=O)N[C@@H](CCC(=O)O)C(=O)N[C@@H](CCCNC(=N)N)C(=O)N[C@@H](CC(C)C)C(=O)N[C@@H](Cc2ccccc2)C(=O)N[C@@H](CCCCN)C(=O)N[C@@H](CCC(=O)O)C(=O)N[C@@H](C)C(N)=O)NC(=O)[C@H](CCC(=O)O)NC(=O)[C@H](Cc2c[nH]c3ccccc23)NC(=O)[C@H](C(C)C)NC(=O)[C@H](Cc2c[nH]c3ccccc23)NC(=O)[C@H](CCSC)NC(=O)[C@H](C(C)C)NC(=O)[C@H](Cc2c[nH]cn2)NC1=O [Compound 53, VEPNCDIHVMWVWECFERLFKEA] (Ac-VEPNCDIHVMWVWECFERLFKEA-NH2; disulfide 5-15 (inferred))
The IC50 of the first is 2.2-fold higher: 70 nM for the first, 31.4 nM for the second.

`CC[C@H](C)[C@@H]1NC(=O)[C@H](CC(=O)O)NC(=O)[C@@H](NC(=O)[C@H](CC(N)=O)NC(=O)[C@@H]2CCCN2C(=O)[C@H](CCC(=O)O)NC(=O)[C@@H](NC(C)=O)C(C)C)CSSC[C@@H](C(=O)N[C@@H](Cc2ccccc2)C(=O)N[C@@H](CCC(=O)O)C(=O)N[C@@H](CCCNC(=N)N)C(=O)N[C@@H](CC(C)C)C(=O)N[C@@H](CO)C(=O)NCC(=O)NCC(=O)NCC(N)=O)NC(=O)[C@H](CCC(=O)O)NC(=O)[C@H](Cc2c[nH]c3ccccc23)NC(=O)[C@H](C(C)C)NC(=O)[C@H](Cc2c[nH]c3ccccc23)NC(=O)[C@H](CCSC)NC(=O)[C@H](C(C)C)NC(=O)[C@H](Cc2c[nH]cn2)NC1=O` [Compound 45, VEPNCDIHVMWVWECFERLSGGG] (Ac-VEPNCDIHVMWVWECFERLSGGG-NH2; disulfide 5-15 (inferred)) and `CC[C@H](C)[C@@H]1NC(=O)[C@H](CC(=O)O)NC(=O)[C@@H](NC(=O)[C@H](CC(N)=O)NC(=O)[C@@H]2CCCN2C(=O)[C@H](CCC(=O)O)NC(=O)[C@@H](NC(C)=O)C(C)C)CSSC[C@@H](C(=O)N[C@@H](Cc2ccccc2)C(=O)N[C@@H](CCC(=O)O)C(=O)N[C@@H](CCCNC(=N)N)C(=O)N[C@@H](CC(C)C)C(=O)N[C@@H](Cc2ccc(O)cc2)C(=O)NCC(=O)NCC(=O)NCC(N)=O)NC(=O)[C@H](C(C)C)NC(=O)[C@H](Cc2c[nH]c3ccccc23)NC(=O)[C@H](C(C)C)NC(=O)[C@H](Cc2c[nH]c3ccccc23)NC(=O)[C@H](CCSC)NC(=O)[C@H](C(C)C)NC(=O)[C@H](Cc2c[nH]cn2)NC1=O` [Compound 43, VEPNCDIHVMWVWVCFERLYGGG] (Ac-VEPNCDIHVMWVWVCFERLYGGG-NH2; disulfide 5-15) are within 1.5-fold of each other in IC50: 51 nM for the first, 66 nM for the second.

`CC[C@H](C)[C@@H]1NC(=O)[C@H](CC(=O)O)NC(=O)[C@@H](NC(=O)[C@H](CC(N)=O)NC(=O)[C@@H]2CCCN2C(=O)[C@H](CCC(=O)O)NC(=O)[C@@H](NC(C)=O)C(C)C)CSSC[C@@H](C(=O)N[C@@H](Cc2ccccc2)C(=O)N[C@@H](CCC(=O)O)C(=O)N[C@@H](CCCNC(=N)N)C(=O)N[C@@H](CC(C)C)C(=O)N[C@@H](CCSC)C(=O)NCC(=O)N[C@@H](CC(C)C)C(=O)N[C@H](C(N)=O)[C@@H](C)O)NC(=O)[C@H](CCC(=O)O)NC(=O)[C@H](Cc2c[nH]c3ccccc23)NC(=O)[C@H](C(C)C)NC(=O)[C@H](Cc2c[nH]c3ccccc23)NC(=O)[C@H](CCSC)NC(=O)[C@H](C(C)C)NC(=O)[C@H](Cc2c[nH]cn2)NC1=O` [Compound 59, VEPNCDIHVMWVWECFERLMGLT] (Ac-VEPNCDIHVMWVWECFERLMGLT-NH2; disulfide 5-15 (inferred)) and `CC[C@H](C)[C@@H]1NC(=O)[C@H](CC(=O)O)NC(=O)[C@@H](NC(=O)[C@H](CC(N)=O)NC(=O)[C@@H]2CCCN2C(=O)[C@H](CCC(=O)O)NC(=O)[C@@H](NC(C)=O)C(C)C)CSSC[C@@H](C(=O)N[C@@H](Cc2ccccc2)C(=O)N[C@@H](CCC(=O)O)C(=O)N[C@@H](CCCNC(=N)N)C(=O)N[C@@H](CC(C)C)C(=O)N[C@@H](CCSC)C(=O)N[C@@H](CCCCN)C(N)=O)NC(=O)[C@H](CCC(=O)O)NC(=O)[C@H](Cc2c[nH]c3ccccc23)NC(=O)[C@H](C(C)C)NC(=O)[C@H](Cc2c[nH]c3ccccc23)NC(=O)[C@H](CCSC)NC(=O)[C@H](C(C)C)NC(=O)[C@H](Cc2c[nH]cn2)NC1=O` [Compound 62, VEPNCDIHVMWVWECFERLMK] (Ac-VEPNCDIHVMWVWECFERLMK-NH2; disulfide 5-15 (inferred)) are the same in IC50: 25 nM for the first, 25 nM for the second.

Going from `CC[C@H](C)[C@@H]1NC(=O)[C@H](CC(=O)O)NC(=O)[C@@H](NC(=O)[C@H](CC(N)=O)NC(=O)[C@@H]2CCCN2C(=O)[C@H](CCC(=O)O)NC(=O)[C@@H](NC(C)=O)C(C)C)CSSC[C@@H](C(=O)N[C@@H](Cc2ccccc2)C(=O)N[C@@H](CCC(=O)O)C(=O)N[C@@H](CCCNC(=N)N)C(=O)N[C@@H](CC(C)C)C(=O)N[C@@H](Cc2ccc(O)cc2)C(=O)NCC(=O)N[C@@H](Cc2c[nH]c3ccccc23)C(=O)NCC(N)=O)NC(=O)[C@H](CCC(=O)O)NC(=O)[C@H](Cc2c[nH]c3ccccc23)NC(=O)[C@H](C(C)C)NC(=O)[C@H](Cc2c[nH]c3ccccc23)NC(=O)[C@H](CCSC)NC(=O)[C@H](C(C)C)NC(=O)[C@H](Cc2c[nH]cn2)NC1=O` [Compound 42, VEPNCDIHVMWVWECFERLYGWG] (Ac-VEPNCDIHVMWVWECFERLYGWG-NH2; disulfide 5-15 (inferred)) to `CC[C@H](C)[C@@H]1NC(=O)[C@H](CC(=O)O)NC(=O)[C@@H](NC(=O)[C@H](CC(N)=O)NC(=O)[C@@H]2CCCN2C(=O)[C@H](CCC(=O)O)NC(=O)[C@@H](NC(C)=O)C(C)C)CSSC[C@@H](C(=O)N[C@@H](Cc2ccccc2)C(=O)N[C@@H](CCC(=O)O)C(=O)N[C@@H](CCCNC(=N)N)C(=O)N[C@@H](CC(C)C)C(=O)N[C@H](C(=O)N[C@@H](CCCCN)C(N)=O)C(C)C)NC(=O)[C@H](CCC(=O)O)NC(=O)[C@H](Cc2c[nH]c3ccccc23)NC(=O)[C@H](C(C)C)NC(=O)[C@H](Cc2c[nH]c3ccccc23)NC(=O)[C@H](CCSC)NC(=O)[C@H](C(C)C)NC(=O)[C@H](Cc2c[nH]cn2)NC1=O` [Compound 48, VEPNCDIHVMWVWECFERLVK] (Ac-VEPNCDIHVMWVWECFERLVK-NH2; disulfide 5-15 (inferred)), the IC50 falls from 68.2 nM to 42.4 nM (1.6-fold). The second is the more potent here.
